{"source": "patent US20220033460A1", "about": "“IDENTIFICATION AND USE OF T CELL EPITOPES IN DESIGNING DIAGNOSTIC AND THERAPEUTIC APPROACHES FOR COVID-19” (priority 2020, published 2022)", "system": "TCRs from the BAL of COVID-19 patients", "assay_type": "cell-based, human"}
{"sequence": "LLLLDRLNQLESKMSGKGQQQQ (SARS-CoV-2 epitope) [N221-242]", "values": [{"measurement": "recognition of the peptide, effect of the mutation (NFAT activation)", "result": "unaffected"}]}
